Values of other authors as cited in patent EP4374853A1, “SOLID FORMULATION OF ENZALUTAMIDE” (Lotus Pharmaceutical Co., Ltd., priority 2022, dated 2024).

Key:
[1] = between pH 1-11

Permeability: high permeability
Solubility in aqueous media [1]: practically insoluble
SMILES: CNC(=O)c1ccc(N2C(=S)N(c3ccc(C#N)c(C(F)(F)F)c3)C(=O)C2(C)C)cc1F [Enzalutamide, 4-{3-[4-cyano-3-(trifluoromethyl)phenyl]-5,5-dimethyl-4-oxo-2-sulfanylideneimiidazolidin-1-yl}-2-fluoro-N-methylbenzymide]
